In publication PMC7078479, “Sulfamoyl Heteroarylcarboxylic Acids as Promising Metallo-β-Lactamase Inhibitors for Controlling Bacterial Carbapenem Resistance” (mBio, 2020):
“Also recorded” adds a separate entry of the source. Where two headings read alike, the source gives them in different places.

Assays:
SFH-1 = test: In vitro inhibition assay, IPM hydrolysis by SFH-1; type: biochemical; details: even in the presence of 100 μM SFC
Description: (§1) MBL (10 nM) was mixed with the inhibitors and incubated for 5 min at 30°C. IPM was added to reach a concentration of 150 μM, and the velocity of IPM hydrolysis was monitored at 298 nm. The assay was performed at 30°C using 10 mM HEPES (pH 7.5) buffer containing 200 mM NaCl and 50 μg/ml bovine serum albumin (BSA) for IMP-1, NDM-1, VIM-2, and SMB-1. For SFH-1 and L1, another 10 mM HEPES (pH 7.5) buffer containing 200 mM NaCl, 20 μM ZnSO4, and 50 μg/ml BSA was used.

[1] = Acute toxicity study in mice; type: in vivo; details: male, CD1, mouse, in vivo, ip, intraperitoneal (i.p.) single injection, read-out: 50% lethal dose (LD50)
Description: (§2) All experiments were approved by the Nagoya University Animal Ethics Committee, and all experiments were performed in a manner that minimized animal suffering. Male CD1 mice (4 weeks old; 20 to 25 g body weight) were purchased from Charles River Laboratories Japan (Yokohama, Japan). E. coli NUBL-24 (blaIMP-1) and K. pneumoniae MS5674 (blaNDM-1 and blaVIM-1) strains were inoculated on LB agar plates and grown for 18 h at 37°C. Bacteria were then scraped from the plates, and their concentration was adjusted to 5 × 10^6 to 1 × 10^7 CFU in saline solution containing 5% mucin; this solution was then i.p. injected into the mice. At 1 and 3 h after infection, saline solution, MPM, inhibitors, and a combination of MPM and inhibitor were i.p. injected. Mice were monitored for 7 days to formulate survival curves, after which they were euthanized by CO2 asphyxiation.
(§3) For acute toxicity studies, mice were i.p. (400 μl/injection) or i.v. (150 μl/injection) administered a single injection of serially diluted SFC. Mortality was then monitored for 7 days.

mice = test: Acute toxicity study in mice; type: in vivo; details: intravenous (i.v.) single injection, 7 days
Description: as §2, §3

HeLa cells = test: Toxicity assay in HeLa cells (CellTiter 96 AQueous); type: cell-based; details: 24 h exposure, cell proliferation assay
Description: HeLa cells were seeded at 5,000 cells per well in 96-well plates and cultured in Dulbecco’s modified Eagle’s medium (DMEM) (Wako Pure Chemical Industries, Osaka, Japan). After incubation for 24 h at 37°C with 5% CO2, staurosporine (Sigma-Aldrich, St. Louis, MO) and SHCs were added to each well (final DMSO concentration was 1%), after which the plates were incubated for another 24 h. Twenty microliters of tetrazolium solution, obtained from a CellTiter 96 AQueous one-solution cell proliferation assay kit (Promega, Madison, WI), was added into each well. The plate was incubated for 3 h under the same conditions mentioned above, and the absorbance at 490 nm was measured for the determination of cell proliferation.

[2] = system: E. coli BL21(DE3)/pET-KHM-1; test: Susceptibility testing, KHM-1-producing E. coli; type: cell-based; details: Escherichia coli
Description: (§4) MICs were determined via the microdilution method according to the CLSI guidelines ([38]). In brief, 5 × 10^4 bacterial cells were inoculated in 100 μl of cation-adjusted Mueller-Hinton broth (Becton, Dickinson and Company, Franklin Lakes, NJ) containing the β-lactams and appropriately diluted inhibitors. The final concentration of DMSO was maintained at 2% in the assays. The tested plates were then incubated at 35°C for 16 to 20 h. The MIC value was determined as the lowest concentration of tested β-lactams where no bacterial growth was visibly observed. The optical density at 600 nm (OD600) value was measured using a plate reader for drawing the heat maps. The FIC index value was calculated using the following equation: FIC index=MIC of β-lactam with inhibitor/MIC of β-lactam alone+MIC of inhibitor with β-lactam/MIC of inhibitor alone

E. coli DH5α/pBC-IMP-1 = test: Susceptibility and checkerboard testing, IMP-1-producing E. coli; type: cell-based, Escherichia coli; details: for MIC: Escherichia coli
Description: as §4
(§5) Unless noted otherwise, the FIC index was defined as the lowest value among all obtained values. The synergistic effect was defined as the effect observed when the FIC index value was ≤0.5.

OXA-48 = biological target: T1, OXA-48 (Klebsiella pneumoniae, UniProt Q6XEC0); test: Serine β-lactamase inhibition, nitrocefin hydrolysis by OXA-48; type: biochemical; details: nitrocefin 100 μM
T1 construct: made in house; host or cells: E. coli BL21(DE3)pLysS
Description: The serine–β-lactamases (1 nM) TLA-3, CMY-2, and OXA-48 were mixed with SFC in 100 mM phosphate buffer (pH 7.0) and incubated for 5 min at 30°C. Nitrocefin was added to reach a concentration of 100 μM, and the velocity of nitrocefin hydrolysis was monitored at 482 nm. Avibactam (MedKoo Bioscience, Morrisville, NC) was used as an inhibitor for serine–β-lactamases. The inhibitory effect of SFC against ACE was evaluated using ACE Kit-WST (Dojindo Laboratories, Kumamoto, Japan). The residual ACE activity was calculated as described in the manufacturer’s protocol as follows: [1 − (Acontrol − Asample)/(Acontrol − Abackground)] × 100. EDTA solution (Nippon Gene, Tokyo, Japan) was used as an ACE inhibitor.

NDM-1 = biological target: T2, NDM-1 (Klebsiella pneumoniae, UniProt C7C422); test: Inhibition of IPM hydrolysis by purified NDM-1, Ki by Lineweaver-Burk plots; type: biochemical; details: IPM as substrate, competitive model, mean of three replicates; read-out: Inhibition constant Ki NDM-1
T2 construct: made in house
Description: as §1
Initial velocities (vo) were measured after varying the concentrations of IPM and inhibitors, and inverse velocities (1/vo) were plotted against inverse IPM concentrations […]. Lineweaver-Burk plots were constructed to obtain the inhibition constant (Ki) with the competitive inhibition model using the SigmaPlot 13 suite (Hulinks).

E. coli DH5α/pBC-TMB-2 = test: Susceptibility testing, TMB-2-producing E. coli; type: cell-based; details: Escherichia coli
Description: as §4

E. coli DH5α/pBC-NDM-1 = test: Susceptibility and checkerboard testing, NDM-1-producing E. coli; type: cell-based, Escherichia coli; details: for MIC: Escherichia coli
Description: as §4, §5

[3] = system: E. coli BL21(DE3)/pET-SPM-1; test: Susceptibility testing, SPM-1-producing E. coli; type: cell-based; details: Escherichia coli
Description: as §4

L1 = biological target: T3, L1 (Stenotrophomonas maltophilia, UniProt P52700); test: In vitro inhibition assay, IPM hydrolysis by L1; type: biochemical; details: even in the presence of 100 μM SFC
T3 construct: made in house
Description: as §1

[4] = read-out: MIC of MPM + inhibitor (8 μg/ml)
[5] = read-out: MIC of MPM + inhibitor (32 μg/ml)

T3 sequence (P52700 34-290): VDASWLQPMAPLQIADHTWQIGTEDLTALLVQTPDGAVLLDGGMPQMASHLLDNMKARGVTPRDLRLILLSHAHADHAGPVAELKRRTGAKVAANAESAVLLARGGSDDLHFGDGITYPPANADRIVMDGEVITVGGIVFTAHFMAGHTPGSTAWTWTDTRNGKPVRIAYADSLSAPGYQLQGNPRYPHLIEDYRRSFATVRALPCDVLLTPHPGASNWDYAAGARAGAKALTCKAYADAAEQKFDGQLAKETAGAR
T1 sequence (Q6XEC0 23-265, looked up, species assumed): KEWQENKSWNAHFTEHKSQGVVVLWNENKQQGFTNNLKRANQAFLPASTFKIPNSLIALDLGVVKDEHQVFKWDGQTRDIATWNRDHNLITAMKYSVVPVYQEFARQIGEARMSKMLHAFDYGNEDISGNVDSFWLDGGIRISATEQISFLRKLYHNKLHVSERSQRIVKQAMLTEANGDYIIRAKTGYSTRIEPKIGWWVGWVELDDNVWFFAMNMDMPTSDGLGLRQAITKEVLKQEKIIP
T2 sequence (C7C422 29-270 limits assumed): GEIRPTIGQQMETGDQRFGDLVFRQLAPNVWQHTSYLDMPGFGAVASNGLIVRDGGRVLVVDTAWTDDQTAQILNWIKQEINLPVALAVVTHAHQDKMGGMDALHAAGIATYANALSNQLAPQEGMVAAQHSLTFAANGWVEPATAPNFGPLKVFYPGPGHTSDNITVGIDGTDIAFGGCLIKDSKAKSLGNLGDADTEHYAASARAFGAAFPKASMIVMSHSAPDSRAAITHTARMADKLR

Cc1oc(C)c(S(N)(=O)=O)c1C(=O)O [SFC, 2,5-dimethyl-4-sulfamoylfuran-3-carboxylic acid]
Inhibition of IPM hydrolyzing activity of SFH-1 (SFH-1): did not inhibit | LD50 at 7 days [1]: > 1000 mg/kg | 50% lethal dose (LD50) (mice): 246 mg/kg of body weight | Toxicity in HeLa cells (HeLa cells): very low toxicity; also recorded: low toxicity | MIC [2, 4]: 4 µg/mL | MIC [2, 5]: 2 µg/mL | MIC meropenem + 2 μg/mL compound (E. coli DH5α/pBC-IMP-1; E. coli DH5α/pBC-IMP-1): 0.063 µg/mL | Reduction in MPM MIC (E. coli DH5α/pBC-IMP-1; E. coli DH5α/pBC-IMP-1, 2 μg/ml compound): 16 fold | Reduction in MPM MIC (E. coli DH5α/pBC-IMP-1; E. coli DH5α/pBC-IMP-1, 10 μg/ml compound): 16 fold | MIC (E. coli DH5α/pBC-IMP-1; [4]): 0.031 µg/mL | MIC (E. coli DH5α/pBC-IMP-1; [5]): 0.031 µg/mL | FIC index (E. coli DH5α/pBC-IMP-1; checkerboard with MPM, E. coli DH5α/pBC-IMP-1, lowest value): 0.06 | Inhibitory effect against OXA-48 (class D) (OXA-48): nonexistent or insufficient | Ki (NDM-1): 9.82 µM | MIC (E. coli DH5α/pBC-TMB-2; [4]): 0.5 µg/mL | MIC (E. coli DH5α/pBC-TMB-2; [5]): 0.125 µg/mL | MIC meropenem + 2 μg/mL compound (E. coli DH5α/pBC-NDM-1; E. coli DH5α/pBC-NDM-1): 16 µg/mL | Reduction in MPM MIC (E. coli DH5α/pBC-NDM-1; E. coli DH5α/pBC-NDM-1, 2 μg/ml compound): 4 fold | MIC (E. coli DH5α/pBC-NDM-1; [4]): 2 µg/mL | MIC (E. coli DH5α/pBC-NDM-1; [5]): ≤ 0.25 µg/mL | FIC index (E. coli DH5α/pBC-NDM-1; checkerboard with MPM, E. coli DH5α/pBC-NDM-1, lowest value): 0.09 | MIC [3, 4]: 0.063 µg/mL | MIC [3, 5]: 0.063 µg/mL | Inhibition of IPM hydrolyzing activity of L1 (L1): did not inhibit
